Reference: publication PMC4242082, “Mechanistic determinants of the directionality and energetics of active export by a heterodimeric ABC transporter” (Nature Communications, 2014)
Where a chain is given by its changes, count along the chain named. Like-named read-outs stand apart in the source and are kept apart here.

Assays:
rat TAP1-NBD [1] = target: T1, rat TAP1-NBD (Rattus norvegicus, UniProt P36370); assay: fluorescence polarization, direct titration; format: binding; details: pH 8.0, 20 mM Tris, 50 mM NaCl, 1 mM dithiothreitol; labelled compound
T1 construct: monomer-homodimer equilibrium
T1 sequence (P36370 465-725): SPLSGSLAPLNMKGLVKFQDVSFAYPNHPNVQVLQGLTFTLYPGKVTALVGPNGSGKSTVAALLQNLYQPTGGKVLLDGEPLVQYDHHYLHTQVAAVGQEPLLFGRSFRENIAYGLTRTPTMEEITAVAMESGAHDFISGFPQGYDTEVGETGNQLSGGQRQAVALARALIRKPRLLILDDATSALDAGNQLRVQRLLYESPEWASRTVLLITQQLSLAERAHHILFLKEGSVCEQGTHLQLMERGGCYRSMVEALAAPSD
Source text: fluorescence polarization, direct titration on rat TAP1-NBD | series of eight twofold dilutions in assay buffer

rat TAP1-NBD [2] = target: T2, rat TAP1-NBD (Rattus norvegicus, UniProt P36370, D651A); assay: fluorescence polarization competition with ATP-Bodipy; format: binding
T2 construct: monomer-homodimer equilibrium
T2 sequence (P36370 465-725 D651A): T1 sequence (P36370 465-725) with D187A
Source text: (§1) fluorescence polarization competition with ATP-Bodipy on rat TAP1-NBD | affinities for ATP and ADP of isolated wt and D-loop (D651A) mutant rat TAP1-NBD

rat TAP1-NBD [3] = target: T1, rat TAP1-NBD; assay: as above; format: binding
Source text: as §1

[4] = target: T3, TAP (TAP1/TAP2 complex; wt TAP) (Homo sapiens, UniProt Q03518+Q03519); assay: biochemical; set-up: species or system Sf9; ATP-agarose competition binding assay with TAP-containing Sf9 membranes; details: read-out: ATP binding IC50
T3 construct: full-length heterodimer from Sf9 insect cells (baculovirus), purified and reconstituted in proteoliposomes, or in membranes
T3 sequence (Q03518 1-748): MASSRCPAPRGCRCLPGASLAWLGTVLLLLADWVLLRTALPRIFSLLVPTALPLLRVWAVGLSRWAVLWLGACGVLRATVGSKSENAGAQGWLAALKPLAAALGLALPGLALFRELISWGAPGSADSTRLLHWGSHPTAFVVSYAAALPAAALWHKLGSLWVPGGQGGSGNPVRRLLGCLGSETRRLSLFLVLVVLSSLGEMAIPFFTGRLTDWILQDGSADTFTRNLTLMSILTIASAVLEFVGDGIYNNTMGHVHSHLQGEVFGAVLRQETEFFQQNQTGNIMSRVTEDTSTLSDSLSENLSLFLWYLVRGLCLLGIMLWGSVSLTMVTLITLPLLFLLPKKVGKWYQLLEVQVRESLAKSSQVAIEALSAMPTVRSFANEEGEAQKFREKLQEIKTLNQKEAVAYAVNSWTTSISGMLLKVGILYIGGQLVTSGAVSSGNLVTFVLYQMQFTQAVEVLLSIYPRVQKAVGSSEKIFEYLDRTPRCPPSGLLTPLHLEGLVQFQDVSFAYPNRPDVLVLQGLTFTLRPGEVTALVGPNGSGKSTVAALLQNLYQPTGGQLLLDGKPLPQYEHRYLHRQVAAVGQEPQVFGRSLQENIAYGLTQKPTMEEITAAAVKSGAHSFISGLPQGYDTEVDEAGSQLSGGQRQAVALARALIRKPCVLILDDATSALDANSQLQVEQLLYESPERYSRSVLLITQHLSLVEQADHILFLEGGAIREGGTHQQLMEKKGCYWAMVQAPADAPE
T3 sequence (Q03519 1-686): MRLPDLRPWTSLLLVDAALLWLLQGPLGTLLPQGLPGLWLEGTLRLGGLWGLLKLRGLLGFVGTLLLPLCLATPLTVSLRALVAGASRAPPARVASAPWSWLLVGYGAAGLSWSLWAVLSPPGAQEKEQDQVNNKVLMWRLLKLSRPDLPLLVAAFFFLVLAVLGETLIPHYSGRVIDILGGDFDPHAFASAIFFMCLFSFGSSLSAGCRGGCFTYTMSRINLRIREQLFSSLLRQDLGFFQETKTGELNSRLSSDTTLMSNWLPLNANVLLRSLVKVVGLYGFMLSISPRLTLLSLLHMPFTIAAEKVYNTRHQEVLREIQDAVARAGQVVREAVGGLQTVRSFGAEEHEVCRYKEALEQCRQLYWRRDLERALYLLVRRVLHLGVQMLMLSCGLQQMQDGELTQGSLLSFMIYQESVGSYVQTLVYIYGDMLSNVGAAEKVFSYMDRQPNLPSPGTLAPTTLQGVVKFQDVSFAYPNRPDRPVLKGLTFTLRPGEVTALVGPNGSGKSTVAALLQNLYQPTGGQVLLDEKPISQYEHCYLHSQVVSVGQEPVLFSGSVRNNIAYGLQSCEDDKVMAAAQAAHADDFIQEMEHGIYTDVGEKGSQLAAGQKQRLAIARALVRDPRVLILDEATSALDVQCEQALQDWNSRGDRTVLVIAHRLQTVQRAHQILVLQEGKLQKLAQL

rat TAP1-NBD [5] = target: T4, rat TAP1-NBD (Rattus norvegicus, UniProt P36370, D645N/D651A); assay: X-ray crystal structure, […] Å; format: binding; details: crystals pH 8.0; canonical NBD dimer with two ATP
T4 construct: monomer-homodimer equilibrium
T4 sequence (P36370 465-725 D645N/D651A): T1 sequence (P36370 465-725) with D181N, D187A

[6] = target: T3, TAP (TAP1/TAP2 complex; wt TAP); assay: ATP binding affinity; details: type of constant not stated in main text
rat TAP1-NBD [7] = target: T1, rat TAP1-NBD; assay: biochemical; set-up: fluorescence polarization competition of unlabelled nucleotide against 1 uM ATP-Bodipy, TAP1-NBD
Protocol: Nucleotide-stripped TAP1-NBD samples were re-concentrated to ~100 μM, and used to make a series of eight twofold dilutions in assay buffer (20 mM Tris, pH 8.0, 50 mM NaCl, 1 mM dithiothreitol) with 1 μM ATP-Bodipy (Invitrogen). A background control contained no protein. For competitive binding experiments, NBDs (25 μM final) were mixed with 1 μM ATP-Bodipy and a series of ten twofold dilutions of unlabelled nucleotide, with samples with no labelled nucleotide serving as background control. Fluorescence polarization was measured in FlexStation 3 with excitation at 488 nm. All samples were run two or three times in triplicates. Data were analysed with Origin (OriginLab Corp.). Binding affinities of unlabelled nucleotides (Kis) were obtained using Ki=IC50/([L]/Kd+1). To explore the molecular mechanism of antigen translocation, wt TAP and the D674A/wt complex were purified and functionally reconstituted in proteoliposomes. […] Furthermore, the Michaelis–Menten kinetics for peptide transport by wt TAP and D674A/wt are equal (Fig. 2c, Supplementary Fig. 2c and Supplementary Table 3), confirming that the affinity for ATP and peptides is not affected by the D-loop substitution.

[8] = target: T5, TAP with tapasin-TAP2 fusion (Tsn-TAP) (Homo sapiens, UniProt Q03518+Q03519); assay: competition with 8-azido-[α-32P]ATP photo-crosslinking; format: binding; details: 200-fold excess, 1 mM MgCl2, pH 7.4, 4 °C
T5 construct: gene TAP1; purified heterodimer from Sf9 cells in digitonin; TAP2 fused N-terminally to tapasin (TAPBP) only to separate the subunits on the gel
T5 sequence (Q03518 1-748): T3 sequence (Q03518 1-748)
T5 sequence (Q03519 1-686): T3 sequence (Q03519 1-686)
T5 sequence (O15533 21-448 partner): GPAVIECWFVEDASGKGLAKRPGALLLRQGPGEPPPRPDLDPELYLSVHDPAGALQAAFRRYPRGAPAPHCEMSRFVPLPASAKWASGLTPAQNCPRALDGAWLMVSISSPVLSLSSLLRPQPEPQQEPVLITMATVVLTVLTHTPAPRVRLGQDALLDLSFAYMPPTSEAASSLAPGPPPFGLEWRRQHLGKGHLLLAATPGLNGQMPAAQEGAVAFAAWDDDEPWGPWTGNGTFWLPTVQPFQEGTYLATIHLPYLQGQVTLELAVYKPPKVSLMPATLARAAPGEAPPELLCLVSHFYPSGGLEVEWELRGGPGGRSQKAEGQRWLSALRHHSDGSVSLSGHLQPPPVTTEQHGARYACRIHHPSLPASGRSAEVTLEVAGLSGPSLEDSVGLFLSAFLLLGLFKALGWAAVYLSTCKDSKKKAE

Kd (rat TAP1-NBD [1]) | Compound | Ki (rat TAP1-NBD [2]) | Ki (rat TAP1-NBD [3]) | IC50 [4] | X-ray crystal structure, 2.65 Å (rat TAP1-NBD [5]) | affinity [6] | IC50 (rat TAP1-NBD [7]; read-out: IC50 (µM) ATP) | IC50 (rat TAP1-NBD [7]; read-out: IC50 (µM) ADP) | competition with 8-azido-[α-32P]ATP photo-crosslinking [8]
6.1 ± 1.7 µM | ATP-Bodipy | – | – | – | – | – | – | – | –
– | Nc1ncnc2c1ncn2[C@@H]1O[C@H](COP(=O)(O)OP(=O)(O)OP(=O)(O)O)[C@@H](O)[C@H]1O [ATP] | 148 ± 9 µM | 119 ± 13 µM | 10 ± 1 µM | the two ATPs and their binding sites are essentially unaffected by this structural re-organization | all mutants displayed similar affinity for peptides and ATP as compared with wt TAP | 139 ± 30 µM | – | –
– | Nc1ncnc2c1ncn2[C@@H]1O[C@H](COP(=O)(O)OP(=O)(O)O)[C@@H](O)[C@H]1O [ADP] | 59 ± 3 µM | 59 ± 2 µM | – | – | – | – | 69 ± 14 µM | wt and D674A/wt TAP showed the same binding properties for ATP, ADP (Fig. 2b)
